{
  "source": "patent US20210123061A1",
  "about": "“METHODS AND COMPOSITIONS FOR TREATING INFLAMMATORY DISEASE OR DISORDER” (THE BRIGHAM AND WOMEN'S HOSPITAL, INC., priority 2018, published 2021)",
  "key": {"phospho-RSK1-Ser380": {"system": "phospho-RSK1-Ser380", "test": "Anti-RSK1 immunoprecipitation and immunoblot in IFN-γ-stimulated PBMC-derived macrophages", "type": "cell-based, human", "details": "10 μM pre-treatment two hours, IFN-γ up to 90 minutes, serum starvation", "description": "FIGS. 3A-3F show RSK1 is activated through JAK signaling and its inhibition suppresses STAT1 phosphorylation at Ser727 in human primary macrophages in response to IFN-γ. (FIG. 3A) PBMC-derived macrophages were pre-treated with DMSO or 10 μM a pan-JAK inhibitor, pyridone-6, for two hours and then stimulated with IFN-γ for indicated time under serum starvation. Cell lysates were subjected to immunoprecipitation with normal IgG or anti-RSK1 followed by immunoblot analysis using the indicated antibodies. WCL, whole cell lysate. N=3 donors. (FIG. 3B) Immunoblots of cell lysates from macrophages that were transfected with control siRNA or RSK1 siRNA followed by stimulation with IFN-γ for indicated time under serum starvation. N=2 donors. (FIG. 3C) Immunoblots of cell lysates from macrophages that were pre-treated with DMSO or BI-D1870 for two hours and subsequently left unstimulated or stimulated with IFN-γ for 1 hour under serum starvation. (FIG. 3D) Densitometric based quantification (ImageJ Software) of STAT1-pSer727 in panel (FIG. 3C) plus three additional donors. The phosphorylation levels in cells pretreated with DMSO and stimulated were defined as 1.0. Data are means±SE. […] (FIG. 3F) Quantification of PRM ions (MS/MS ions) of the indicated STAT1 peptide harboring a phosphorylation at Ser727 (and oxidized methionine, m), generated from the digest of panel […]. […]"}, "[1]": {"system": "STAT1 phosphorylation (Ser727, Tyr701)", "test": "Immunoblot of STAT1 phosphorylation in IFN-γ-stimulated PBMC-derived macrophages", "type": "cell-based, human", "details": "10 μM pre-treatment, IFN-γ, cell lysates", "description": "FIGS. 3A-3F show RSK1 is activated through JAK signaling and its inhibition suppresses STAT1 phosphorylation at Ser727 in human primary macrophages in response to IFN-γ. (FIG. 3A) PBMC-derived macrophages were pre-treated with DMSO or 10 μM a pan-JAK inhibitor, pyridone-6, for two hours and then stimulated with IFN-γ for indicated time under serum starvation. Cell lysates were subjected to immunoprecipitation with normal IgG or anti-RSK1 followed by immunoblot analysis using the indicated antibodies. WCL, whole cell lysate. N=3 donors. (FIG. 3B) Immunoblots of cell lysates from macrophages that were transfected with control siRNA or RSK1 siRNA followed by stimulation with IFN-γ for indicated time under serum starvation. N=2 donors. (FIG. 3C) Immunoblots of cell lysates from macrophages that were pre-treated with DMSO or BI-D1870 for two hours and subsequently left unstimulated or stimulated with IFN-γ for 1 hour under serum starvation. (FIG. 3D) Densitometric based quantification (ImageJ Software) of STAT1-pSer727 in panel (FIG. 3C) plus three additional donors. The phosphorylation levels in cells pretreated with DMSO and stimulated were defined as 1.0. Data are means±SE. N=6 donors. **P<0.01 indicate significance for phosphorylation levels compared to control (treatment with DMSO and IFN-γ) by Dunnett's comparison test. (FIG. 3E) Macrophages were treated with DMSO or BI-d1870 for two hours followed by IFN-γ stimulation under serum starvation. Cell lysates were subjected to immunoprecipitation with normal IgG or anti-STAT1-pSer727 followed by SYPRO ruby stain or immunoblot analysis with the indicated antibodies. Immunoprecipitants in the gel (red square) were in-gel digested for parallel reaction monitoring (PRM) mass spectrometry. (FIG. 3F) Quantification of PRM ions (MS/MS ions) of the indicated STAT1 peptide harboring a phosphorylation at Ser727 (and oxidized methionine, m), generated from the digest of panel […].\nCell culture of human PBMC-derived primary macrophages. […]"}},
  "data": [
    {"compound": "CC(C)(C)c1nc2c3cc[nH]c(=O)c3c3cc(F)ccc3c2[nH]1", "note": "[Pyridone-6]", "values": [
      {"measurement": "phospho-RSK1-Ser380 signal", "setting": "phospho-RSK1-Ser380", "result": "marked suppression"},
      {"measurement": "phospho-STAT-Ser727 signal", "setting": "[1]", "result": "similar"}
    ]}
  ]
}
